Assay results reported in patent publication US20260028334A1, “N-(3-(BENZO[B]THIOPHENE-2-CARBOXAMIDO)-PHENYL)-2,3-DIHYDROBENZO[B][1,4]DIOXINE-6-CARBOXAMIDE DERIVATIVES AND RELATED COMPOUNDS AS LACTATE/ATP PRODUCTION INHIBITORS FOR THE TREATMENT OF CANCER” (WMT Aktiengesellschaft, priority 2022, published 2026).

Key:
Assay type in all cases: cell-based
[1] = system: HeLa, 4T1, LLC1, A549, MDA-MB-231 and MiaPaCa2 cells; assay: Lactate production inhibition assay (FIG. 2); settings: 48 hours treatment, 1.5 to 10000 nM
From the text: Recombinant Lactate Dehydrogenase A (LDHA) was used to convert lactate in tissue culture supernatants to pyruvate, with the concomitant reduction of NAD^+ to NADH. The electron acceptor 1-methoxyphenazine methosulfate (MPMS) was then reduced by the generated NADH, thereby regenerating NAD+. Reduced 1-methoxyphenazine methosulfate is used in turn to reduce Water Soluble Tetrazolium 8 (WST8) to an orange WST8 formazan product. The assay is adapted from the publication “Application of WST-8 based colorimetric NAD(P)H detection for quantitative dehydrogenase assays” described in Chamchoy et al., BMC Biochemistry (2019) 20(1):4.
Cells were plated at 4,000 per well in 96-well plate in a medium of high glucose DMEM (PAN) supplemented with 10% FBS (PAN), 2 mM glutamine-alanine (PAN), 2 mM pyruvate (Sigma) and 10 mL/L penicillin-streptomycin (PAN) and grown at 37° C. in 0.5% O2, 5% CO2 and 75% humidity. For hypoxia, cells were grown and treated in the Whitley H35 Hypoxystation (Don Whitley Scientific) at 37° C. in 0.5% O2, 5% CO2 and 75% humidity. […] Thereafter, 80 μl of substrate mix is added to 20 μl of diluted cell supernatant in a 96-well flat-bottomed plate and the absorbance at 460 nm determined at one minute intervals over a 30 minute period. […]

[2] = system: ER stress markers CHAC, CHOP/DDIT3, XBP1 and SLC7A11; assay: Gene expression analysis by qPCR (FIG. 3); settings: HeLa, 4T1, LLC1, A549, MDA-MB-231 and MiaPaCa2 cells, 10 nM, 0.5, 1, 2 and 4 hours
Description: (§1) Cells were plated at 40,000 cells per ml in medium of high glucose DMEM (PAN) supplemented with 10% FBS (PAN), 2 mM glutamine-alanine (PAN), 2 mM pyruvate (Sigma) and 10 mL/L penicillin-streptomycin (PAN), and grown at 37° C. in 0.5% O2, 5% CO2 and 75% humidity. Next day, cells were induced with test compounds (FIG. 3: compounds of example 3/16, 3/8, 10 at 10 nM; FIG. 8E-8AB: compounds of example 3/16, 3/8, 10, 3/19, 30 and 30/2 at 10 nM) 0.5, 1, 2 and 4 hours, as well as with vehicle (DMSO) only. After this time, the cells were lysed according to protocol (Promega, SV 96 Total RNA Isolation System, #Z3505). After transferring the lysate to a 96-well-RNA binding plate, RNA was isolated and put at approx. 1 μg into cDNA synthesis using LunaScript RT SuperMix Kit (NEB, #E3010). The resulting cDNA was diluted 1:5 and used for qPCR Analysis (Taqman). Luna Universal Probe qPCR Master Mix (NEB, #M3004) is used as 2× reaction mix to which the diluted cDNA is added. The qPCR analysis was performed using QuantStudio™ 6 Flex real-time PCR systems (Thermo Fisher Scientific).
(§2) A set of primers plus probe for each gene of interest was purchased at IDT (Integrated DNA Technologies).

[3] = system: ER stress markers CHAC and CHOP/DDIT3; assay: Gene expression analysis by qPCR (FIG. 8E-8AB); settings: Panc02 and SKOV3 cells, 10 nM, 0.5, 1, 2 and 4 hours
Description: as §1, §2

Compound	lactate production level [1]	ER stress markers CHAC, CHOP/DDIT3, XBP1 and SLC7A11 [2]	ER stress markers CHAC and CHOP/DDIT3 [3]
O=C(Nc1ccc(F)c(NC(=O)c2cc3ccc(OCCCN4CCCC4)cc3s2)c1)c1ccc2c(c1)OCCO2 [3/8]	dose-dependent reduction	time-dependent upregulation	time-dependent upregulation
Cc1ccc(NC(=O)c2ccc3c(c2)OCCO3)cc1NC(=O)c1cc2cccnc2s1 [3/16]	dose-dependent reduction	time-dependent upregulation	time-dependent upregulation
